# Paper PMC3742671, “Structure, Antimicrobial Activities and Mode of Interaction with Membranes of Bovel Phylloseptins from the Painted-Belly Leaf Frog, Phyllomedusa sauvagii” (PLoS ONE, 2013)
# Ends that are not written are not given here.
# How the values were obtained:
# [1] = Circular dichroism spectroscopy with DMPC/DMPG (3:1) large unilamellar vesicles; format: physicochemical; settings: CD, peptide 30 µM, DMPC/DMPG (3:1) LUVs 1 mg/mL in PBS pH 7.3
# Protocol: (§1) The far-ultraviolet circular dichroism (CD) spectra were recorded as described. Phylloseptins-S (30 µM) were solubilized either in 80 mM sodium dodecyl sulfate (SDS) or in phosphate-buffered saline (PBS: 10 mM phosphate, pH 7.3) containing 1 mg/mL of large unilamellar vesicles (LUVs) of 1,2-dimyristoyl-sn-glycero-3-phosphocholine (DMPC) and 1,2-dimyristoyl-sn-glycero-3-phosphoglycerol (DMPG) (3∶1 mol/mol). DMPC and DMPG were purchased from Avanti Polar Lipids, Inc. Each spectrum was the average of four scans. CD measurements are reported as Δ/n, where Δ is the dichroic increment and n is the number of residues in the peptide.
# (§2) Figure 6 Circular dichroism spectra of synthetic phylloseptins-S (30 µM). (A) DMPC/DMPG (3∶1) large unilamellar vesicles in PBS (1 mg/mL). (B) 80 mM SDS. CD measurements are reported as the dichroic increment (Δε) per residue.
# [2] = tested on: C. parapsilosis ATCC 22019; format: cell-based
# Protocol: (§3) The effect of phylloseptins-S was evaluated against several bacterial strains and yeasts (Table 2). Bacteria were cultured in Luria-Bertani broth (LB), whereas yeasts were cultured in Yeast Peptone Dextrose medium (YPD), and minimal inhibitory concentrations (MICs) were determined by measuring the absorbance at 630 nm in 96-well microtitration plates, as described previously. Leishmanicidal activity of phylloseptins-S was also examined against promastigotes of different Leishmania species: Leishmania infantum (strain MHOM/MA/67/ITMAP-263), L. major (MHOM/SU/73/5-ASKH) and L. braziliensis (MHOM/BR/75/M2904). Culture of promastigotes and determination of the growth inhibition were performed as previously described, [22], [23].
# [3] = tested on: S. aureus ATCC 43300; settings: strain resistant to methicillin and oxacillin; LB medium (pH 7), absorbance at 630 nm; average of three independent experiments in triplicates
# Protocol: as §3
# (§4) The antimicrobial activity of synthetic PLS-S1 to -S5 was assayed in LB medium (pH 7) against several Gram-negative and Gram-positive bacteria, and multi-drug resistant S. aureus strains. […] The antiparasitic activity of PLSs was also determined against three Leishmania species (L. infantum, L. major, and L. braziliensis). […] Because PLS-S3 contains histidines as basic residues and that approximately only 11% of these residues are positively charged at pH 7, we have evaluated the antibacterial activity at pH 5 at which His residues are predominantly positively charged (∼91%).
# [4] = tested on: E. coli ML-35p; settings: LB medium (pH 7), absorbance at 630 nm; average of three independent experiments in triplicates
# Protocol: as §3, §4
# [5] = tested on: P. aeruginosa ATCC 27853; settings: LB medium (pH 7), absorbance at 630 nm; average of three independent experiments in triplicates
# Protocol: as §3, §4
# [6] = tested on: E. coli ATCC 25922; settings: for MIC: ATCC 25922, pH 7
# Protocol: as §3, §4
# [7] = tested on: S. aureus ST1065; settings: LB medium (pH 7), absorbance at 630 nm; average of three independent experiments in triplicates
# Protocol: as §3, §4
# [8] = tested on: S. aureus ATCC BAA-44; settings: multidrug resistant strain; LB medium (pH 7), absorbance at 630 nm; average of three independent experiments in triplicates
# Protocol: as §3, §4
# [9] = tested on: S. aureus ATCC 25923; settings: LB medium (pH 7), absorbance at 630 nm, 96-well plates; average of three independent experiments in triplicates
# Protocol: as §3, §4
# [10] = tested on: E. faecalis ATCC 29212; settings: LB medium (pH 7), absorbance at 630 nm; average of three independent experiments in triplicates
# Protocol: as §3, §4
# [11] = Circular dichroism spectroscopy in SDS micelles; format: physicochemical; settings: CD, peptide 30 µM in 80 mM SDS
# Protocol: as §1, §2
# [12] = tested on: S. cerevisiae; format: cell-based
# Protocol: as §3
# [13] = tested on: A. baumannii ATCC 19606; settings: LB medium (pH 7), absorbance at 630 nm; average of three independent experiments in triplicates
# Protocol: as §3, §4
# [14] = tested on: S. pyogenes ATCC 19615; settings: LB medium (pH 7), absorbance at 630 nm; average of three independent experiments in triplicates
# Protocol: as §3, §4
# [15] = tested on: K. pneumoniae ATCC 13883; settings: LB medium (pH 7), absorbance at 630 nm; average of three independent experiments in triplicates
# Protocol: as §3, §4
substance,measurement,setting,value
LLGMIPVAISAISALSKL-NH2 [PLS-S5],helix content,[1],60%
same,MIC,[2],>100 µM
same,MIC,[3],>100 µM
same,MIC,[4],>100 µM
same,MIC,[5],>100 µM
same,MIC,[6],>100 µM
same,MIC,[7],>100 µM
same,MIC,[8],>100 µM
same,MIC,[9],25 µM
same,MIC,[10],100 µM
same,helix content,[11],20%
FLSLIPHIVSGVASLAIHF-NH2 [PLS-S3],helix content,[1],65%
same,MIC,[12],>200 µM
same,MIC,[2],>200 µM
same,MIC,[3],>200 µM
same,MIC,[4],>200 µM
same,MIC,[5],>200 µM
same,MIC,[13],>200 µM
same,MIC at pH 5,"[6]; ATCC 25922, pH 5",50 µM
same,MIC,[6],>200 µM
same,MIC,[7],>200 µM
same,MIC,[14],12.5 µM
same,MIC,[8],>200 µM
same,MIC,[15],>200 µM
same,MIC,[9],>200 µM
same,MIC,[10],>200 µM
same,helix content,[11],44%
